Values of other authors as cited in patent US6426338B1, “Therapy for constipation” (priority 1997, dated 2002).

How the values were obtained:
[1] = tested on: patients with constipation; conditions: colchicine alone, in a lower dose

COc1cc2c(c(OC)c1OC)-c1ccc(OC)c(=O)cc1[C@@H](NC(C)=O)CC2 [colchicine]
stimulation of defecation [1]: insufficient in most patients to stimulate defecation | long-term toxicity (given alone in the doses of Verne et al., long-term): can cause muscle and nerve damage (myopathy and neuropathy)

CN[C@H](CC(C)C)C(=O)N[C@H]1C(=O)N[C@@H](CC(N)=O)C(=O)N[C@H]2C(=O)N[C@H]3C(=O)N[C@H](C(=O)N[C@H](C(=O)O)c4cc(O)cc(O)c4-c4cc3ccc4O)[C@H](O)c3ccc(c(Cl)c3)Oc3cc2cc(c3O[C@@H]2O[C@H](CO)[C@@H](O)[C@H](O)[C@H]2O[C@H]2C[C@](C)(N)[C@H](O)[C@H](C)O2)Oc2ccc(cc2Cl)[C@H]1O [vancomycin]
side-effect (long-term use as antibiotic): neurotoxic
